Experimental data: PubChem BioAssay AID270 (DTP/NCI, 2004)
Values joined by “and” are separate entries in the source; they are usually repeats but may differ in a detail not shown here. Equal values may be shown once. Inconclusive results are not listed.

System: BDF1 mice, s.c. Lewis lung carcinoma, T/C %
Experiment: NCI In Vivo Anticancer Drug Screen. Data for tumor model Lewis Lung Carcinoma (subcutaneous) in B6D2F1 (BDF1) mice
Protocol: The antitumor activity of compounds was measured in mice bearing transplantable tumors. Survival or tumor size were measured and the results are expressed as the measurement made in the treated group (T) divided by the measurement made in the vehicle treated control group (C). The tumor model used in this assay is Lewis Lung Carcinoma (subcutaneous) in B6D2F1 (BDF1) mice

[1] = endpoint: mean tumor weight, dose: 10.0 mg/kg/injection, schedule: Q01DX011 (ip), vehicle: other, higher = larger tumour
[2] = endpoint: mean tumor weight, dose: 20.0 mg/kg/injection, schedule: Q01DX011 (ip), vehicle: other, higher = larger tumour
[3] = endpoint: mean tumor weight, dose: 40.0 mg/kg/injection, schedule: Q01DX011 (ip), vehicle: other, higher = larger tumour
[4] = endpoint: mean tumor weight, dose: 160.0 mg/kg/injection, schedule: Q01DX011 (ip), vehicle: other, higher = larger tumour
[5] = endpoint: mean tumor weight, dose: 320.0 mg/kg/injection, schedule: Q01DX011 (ip), vehicle: other, higher = larger tumour

In the case of `CCCC(Sc1nc(N)nc2nc[nH]c12)C(=O)O` (stereo unspecified), the T/C (endpoint: mean tumor weight, dose: 5.0 mg/kg/injection, schedule: Q01DX011 (ip), vehicle: other, higher = larger tumour) is reported as 115 % of control, the T/C [1] is reported as 58 % of control and the T/C [2] is reported as 17 % of control. The T/C [3] was 49 % of control and 69 % of control, the T/C [4] was 64 % of control and the T/C [5] was 50 % of control and 69 % of control. For the same molecule, the T/C (endpoint: mean tumor weight, dose: 640.0 mg/kg/injection, schedule: Q01DX011 (ip), vehicle: other, higher = larger tumour) was 48 % of control.
For `CCOC(=O)c1c[nH]c2c(Cl)c(C)ccc2c1=O`, the T/C (endpoint: mean tumor weight, dose: 104.0 mg/kg/injection, schedule: Q01DX011 (ip), vehicle: other, higher = larger tumour) was 106 % of control, the T/C (endpoint: mean tumor weight, dose: 155.0 mg/kg/injection, schedule: Q01DX011 (ip), vehicle: other, higher = larger tumour) was 111 % of control and the T/C (endpoint: mean tumor weight, dose: 350.0 mg/kg/injection, schedule: Q01DX011 (ip), vehicle: other, higher = larger tumour) was 75 % of control.
In the case of `COc1ccc(-c2cc(=O)c3c(OC)c(OC)c(OC)c(OC)c3o2)cc1OC`, the T/C (endpoint: mean tumor weight, dose: 50.0 mg/kg/injection, schedule: Q01DX011 (ip), vehicle: saline, higher = larger tumour) is reported as 55 % of control and 77 % of control and the T/C (endpoint: mean tumor weight, dose: 200.0 mg/kg/injection, schedule: Q01DX011 (ip), vehicle: saline, higher = larger tumour) is reported as 62 % of control and 78 % of control.
With `NC(Cc1cc([N+](=O)[O-])ccc1CN(CCCl)CCCl)C(=O)O` (stereo unspecified) the T/C (endpoint: median survival time, dose: 1.0 mg/kg/injection, schedule: Q01DX009 (ip), vehicle: Klucel (hydroxypropylcellulose) (HPC), higher = longer survival) was 110 % of control, the T/C (endpoint: median survival time, dose: 2.0 mg/kg/injection, schedule: Q01DX009 (ip), vehicle: Klucel (hydroxypropylcellulose) (HPC), higher = longer survival) was 116 % of control and the T/C (endpoint: median survival time, dose: 3.12 mg/kg/injection, schedule: Q01DX001 (ip), vehicle: Klucel (hydroxypropylcellulose) (HPC), higher = longer survival) was 107 % of control. For the same molecule, the T/C (endpoint: median survival time, dose: 6.25 mg/kg/injection, schedule: Q01DX001 (ip), vehicle: Klucel (hydroxypropylcellulose) (HPC), higher = longer survival) was 104 % of control and the T/C (endpoint: median survival time, dose: 12.5 mg/kg/injection, schedule: Q01DX001 (ip), vehicle: Klucel (hydroxypropylcellulose) (HPC), higher = longer survival) was 103 % of control.
`Cc1nc(N)c(C)c(C(=O)O)n1` was tested, and the T/C (endpoint: median survival time, dose: 50.0 mg/kg/injection, schedule: Q01DX009 (ip), vehicle: water, higher = longer survival) was 113 % of control, the T/C (endpoint: median survival time, dose: 100.0 mg/kg/injection, schedule: Q01DX009 (ip), vehicle: water, higher = longer survival) was 117 % of control and the T/C (endpoint: median survival time, dose: 200.0 mg/kg/injection, schedule: Q01DX009 (ip), vehicle: water, higher = longer survival) was 116 % of control.
`O=C(Nc1ccc(C2=NCCN2)cc1)c1ccc(C(=O)Nc2ccc(C3=NCCN3)cc2)c(Cl)c1` was tested, and the T/C (endpoint: mean tumor weight, dose: 5.0 mg/kg/injection, schedule: Q01DX011 (ip), vehicle: carboxymethylcellulose (CMC), higher = larger tumour) was 73 % of control, the T/C (endpoint: mean tumor weight, dose: 10.0 mg/kg/injection, schedule: Q01DX011 (ip), vehicle: carboxymethylcellulose (CMC), higher = larger tumour) was 51 % of control and the T/C (endpoint: mean tumor weight, dose: 20.0 mg/kg/injection, schedule: Q01DX011 (ip), vehicle: carboxymethylcellulose (CMC), higher = larger tumour) was 81 % of control.
For `CN(N=O)C(=O)NC1CCOCC1`, the T/C (endpoint: median survival time, dose: 475.0 mg/kg/injection, schedule: Q01DX001 (ip), vehicle: saline with Tween-80, higher = longer survival) was 108 % of control.
With `Nc1nc(N)c(N=O)c(Nc2ccc(Br)cc2)n1` the T/C [1] was 76 % of control, the T/C [2] was 114 % of control and the T/C [3] was 70 % of control. For the same molecule, the T/C (endpoint: mean tumor weight, dose: 80.0 mg/kg/injection, schedule: Q01DX011 (ip), vehicle: other, higher = larger tumour) was 44 % of control and 45 % of control, the T/C [4] was 47 % of control and the T/C [5] was 62 % of control.
In the case of `Cc1cc(N(CCCl)CCCl)ccc1N=Nc1ccccc1C(=O)O`, the T/C (endpoint: median survival time, dose: 2.0 mg/kg/injection, schedule: Q01DX009 (ip), vehicle: saline with Tween-80, higher = longer survival) is reported as 101 % of control, the T/C (endpoint: median survival time, dose: 4.0 mg/kg/injection, schedule: Q01DX009 (ip), vehicle: saline with Tween-80, higher = longer survival) is reported as 105 % of control and 111 % of control and the T/C (endpoint: median survival time, dose: 8.0 mg/kg/injection, schedule: Q01DX009 (ip), vehicle: saline with Tween-80, higher = longer survival) is reported as 96 % of control and 104 % of control. For the same molecule, the T/C (endpoint: median survival time, dose: 10.0 mg/kg/injection, schedule: Q01DX001 (ip), vehicle: saline with Tween-80, higher = longer survival) was 107 % of control, the T/C (endpoint: median survival time, dose: 20.0 mg/kg/injection, schedule: Q01DX001 (ip), vehicle: saline with Tween-80, higher = longer survival) was 92 % of control and the T/C (endpoint: median survival time, dose: 32.0 mg/kg/injection, schedule: Q04DX003 (ip), vehicle: saline with Tween-80, higher = longer survival) was 116 % of control.
For `O=c1[nH]c2cc(Cl)c(Cl)cc2o1`, the T/C (endpoint: mean tumor weight, dose: 22.0 mg/kg/injection, schedule: Q01DX011 (ip), vehicle: carboxymethylcellulose (CMC), higher = larger tumour) was 79 % of control, the T/C (endpoint: mean tumor weight, dose: 35.0 mg/kg/injection, schedule: Q01DX011 (ip), vehicle: carboxymethylcellulose (CMC), higher = larger tumour) was 93 % of control and the T/C (endpoint: mean tumor weight, dose: 50.0 mg/kg/injection, schedule: Q01DX011 (ip), vehicle: carboxymethylcellulose (CMC), higher = larger tumour) was 95 % of control. For the same molecule, the T/C (endpoint: mean tumor weight, dose: 75.0 mg/kg/injection, schedule: Q01DX011 (ip), vehicle: carboxymethylcellulose (CMC), higher = larger tumour) was 77 % of control and 84 % of control and the T/C (endpoint: mean tumor weight, dose: 115.0 mg/kg/injection, schedule: Q01DX011 (ip), vehicle: carboxymethylcellulose (CMC), higher = larger tumour) was 114 % of control.
